Source: PMC8855532 (Journal of the American Chemical Society, 2022)

Molecular target: 40-residue Alzheimer’s β-amyloid peptide (Aβ40) fibrils (Homo sapiens, UniProt P05067)
Assay: HPLC titration of free/bound ligand on preformed fibrils
Assay type: binding

Chain of 40-residue Alzheimer’s β-amyloid peptide (Aβ40) fibrils (P05067 672-711): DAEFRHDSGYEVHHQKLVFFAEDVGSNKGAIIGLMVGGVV

Question: How did the Kd turn out when `CNc1ccc(-c2nc3ccc(O)cc3s2)cc1F` [flutemetamol] was run?
Answer: The Kd was 1.6 ± 0.2 µM.
